Measured values published in ChEMBL document CHEMBL3400083, “Effect of the tyrosinase inhibitor (S)-N-trans-feruloyloctopamine from garlic skin on tyrosinase gene expression and melanine accumulation in melanoma cells” (Bioorg Med Chem Lett, 2015).
Values belong to the molecule of their own block, whether it stands above or below them. Active and inactive are the calls of the source. The rule behind the calls is not given here.

What was measured:
[1] = Inhibition of tyrosinase protein expression in alpha-MSH-stimulated mouse B16F10 cells at 48 to 96 uM incubated for 1 hr prior to alpha-MSH challenge measured after 24 hrs by Western blotting analysis; assay type: functional, cell-based; settings: B16-F10
[2] = target: T1, Tyrosinase (Mus musculus) (UniProt P11344); assay: Inhibition of tyrosinase in mouse B16F10 cells assessed as reduction in alpha-MSH-induced melanin content at 96 uM (reference value: 98.5 +/- 4.7%); assay type: cell-based; settings: B16-F10
T1 sequence (whole entry): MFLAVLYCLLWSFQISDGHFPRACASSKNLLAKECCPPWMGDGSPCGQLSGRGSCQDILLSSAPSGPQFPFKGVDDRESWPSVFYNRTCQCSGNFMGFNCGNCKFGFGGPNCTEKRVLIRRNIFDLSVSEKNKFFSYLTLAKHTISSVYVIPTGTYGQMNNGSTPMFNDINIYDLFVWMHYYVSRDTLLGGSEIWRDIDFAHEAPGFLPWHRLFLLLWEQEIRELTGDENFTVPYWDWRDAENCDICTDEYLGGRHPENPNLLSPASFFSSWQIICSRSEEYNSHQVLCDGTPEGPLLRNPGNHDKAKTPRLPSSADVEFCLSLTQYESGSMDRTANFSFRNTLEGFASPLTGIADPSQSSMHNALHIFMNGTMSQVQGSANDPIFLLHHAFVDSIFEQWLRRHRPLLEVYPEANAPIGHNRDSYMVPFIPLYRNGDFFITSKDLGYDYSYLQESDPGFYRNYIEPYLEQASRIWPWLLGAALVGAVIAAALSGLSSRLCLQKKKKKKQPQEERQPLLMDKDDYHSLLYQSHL

[3] = Cytotoxicity against mouse B16F10 cells assessed as cell viability at 12 uM after 72 hrs by MTT assay (reference value: 99.6 +/- 3.5%); assay type: cell-based, B16-F10; settings: read-out: Activity
[4] = Cytotoxicity against mouse B16F10 cells assessed as cell viability at 24 uM after 72 hrs by MTT assay (reference value: 99.6 +/- 3.5%); assay type: cell-based, B16-F10; settings: read-out: Activity
B16-F10 = assay: Inhibition of tyrosinase mRNA expression in alpha-MSH-stimulated mouse B16F10 cells at 48 to 96 uM incubated for 1 hr prior to alpha-MSH challenge measured after 24 hrs by RT-PCR analysis; assay type: functional, cell-based
[5] = Cytotoxicity against mouse B16F10 cells assessed as cell viability at 3 uM after 72 hrs by MTT assay (reference value: 99.6 +/- 3.5%); assay type: cell-based, B16-F10; settings: read-out: Activity
[6] = Cytotoxicity against mouse B16F10 cells assessed as cell viability at 6 uM after 72 hrs by MTT assay (reference value: 99.6 +/- 3.5%); assay type: cell-based, B16-F10; settings: read-out: Activity
[7] = Cytotoxicity against mouse B16F10 cells assessed as cell viability at 96 uM after 72 hrs by MTT assay (reference value: 99.6 +/- 3.5%); assay type: cell-based, B16-F10; settings: read-out: Activity
Tyrosinase [8] = target: T2, Tyrosinase (Mus musculus, UniProt P11344); assay: (§1) Inhibition of tyrosinase in mouse B16F10 cells assessed as reduction in alpha-MSH-induced melanin content; assay type: cell-based, B16-F10
T2 sequence (P11344 whole entry): T1 sequence (whole entry)

[9] = target: T1, Tyrosinase (Mus musculus); assay: as §1; assay type: cell-based; settings: B16-F10
[10] = Cytotoxicity against mouse B16F10 cells assessed as cell viability at 48 uM after 72 hrs by MTT assay (reference value: 99.6 +/- 3.5%); assay type: cell-based, B16-F10; settings: read-out: Activity
[11] = Cytotoxicity against mouse B16F10 cells assessed as cell viability at 1.5 uM after 72 hrs by MTT assay (reference value: 99.6 +/- 3.5%); assay type: cell-based, B16-F10; settings: read-out: Activity
[12] = target: T1, Tyrosinase (Mus musculus); assay: Inhibition of tyrosinase in mouse B16F10 cells assessed as reduction in alpha-MSH-induced melanin content at 48 uM (reference value: 98.5 +/- 4.7%); assay type: cell-based; settings: B16-F10
[13] = target: T1, Tyrosinase (Mus musculus); settings: B16-F10, 100 uM
Description: Inhibition of tyrosinase in mouse B16F10 cells assessed as reduction in alpha-MSH-induced melanin content at 100 uM

Tyrosinase [14] = target: T3, Tyrosinase (Homo sapiens, UniProt P14679); assay: Inhibition of tyrosinase (unknown origin)
T3 sequence (P14679 whole entry): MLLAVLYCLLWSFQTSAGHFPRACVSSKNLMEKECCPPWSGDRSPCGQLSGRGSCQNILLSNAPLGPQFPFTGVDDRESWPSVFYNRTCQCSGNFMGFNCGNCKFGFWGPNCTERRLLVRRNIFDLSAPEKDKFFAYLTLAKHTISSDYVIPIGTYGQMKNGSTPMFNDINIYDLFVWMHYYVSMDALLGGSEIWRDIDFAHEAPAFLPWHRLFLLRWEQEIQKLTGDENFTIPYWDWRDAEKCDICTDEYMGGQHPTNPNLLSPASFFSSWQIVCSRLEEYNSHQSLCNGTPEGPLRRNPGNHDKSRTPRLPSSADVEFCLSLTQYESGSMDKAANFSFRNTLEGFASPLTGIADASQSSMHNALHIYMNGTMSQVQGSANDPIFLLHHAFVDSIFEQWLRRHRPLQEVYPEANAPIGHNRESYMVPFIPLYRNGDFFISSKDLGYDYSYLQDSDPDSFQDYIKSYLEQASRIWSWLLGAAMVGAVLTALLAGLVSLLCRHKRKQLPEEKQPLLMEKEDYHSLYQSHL

inhibition [2]: 106%
IC50 (Tyrosinase [8]): > 96 µM
inhibition [9]: Dose-dependent effect
inhibition [12]: 122%
SMILES: COc1cc(/C=C/C(=O)NC[C@@H](O)c2ccc(O)cc2)ccc1O
inhibition [1]: Active
viability at 72 h, 12 µM [3]: 99.4%
viability at 72 h, 24 µM [4]: 98.3%
inhibition (B16-F10): Active
viability at 72 h, 3 µM [5]: 105%
viability at 72 h, 6 µM [6]: 97.8%
viability at 72 h, 96 µM [7]: 96%
viability at 72 h, 48 µM [10]: 97.2%
viability at 72 h, 1.5 µM [11]: 102%

inhibition [13]: 146%
SMILES: OC[C@H]1O[C@@H](Oc2ccc(O)cc2)[C@H](O)[C@@H](O)[C@@H]1O

IC50 (Tyrosinase [14]): 54.2 µM
SMILES: CC(C)(C)c1cc(O)ccc1O [E319]
